Results on 17 molecules are retold here after patent publication US6815546B2, “Analogues of camptothecin, their use as medicaments and the pharmaceutical compositions containing them” (Societe de Recherches et d'Applications Scientifiques …, priority 1995, dated 2004).

The experiment has as its system Adenocarcinoma HT29 cells from the human colon. Briefly: Adenocarcinoma HT29 cell proliferation, WST1 (compounds in DMA). The class given is cell-based. The note with it: final DMA 0.1% (v/v). As to the method: c. Adenocarcinoma HT29 cells from the human colon are cultured in a single layer at 37° in a humidified atmosphere containing 95% of air and 5% of CO2, in a modified essential Earle's medium at 4.5 g/l (Gibco, Paisley, United Kingdom); completed with 10% of inactivated foetal calf serum, 2 mM of glutamine, and 50 μg/ml of gentamycin (Gibco, Paisley, United Kingdom).
Approximately 2000 cells are seeded with the culture medium above in the wells of a microplate (96 wells, flat-bottomed) and incubated for 24 hours. Solutions in N,N-dimethyl-acetamide (DMA) of each of the examples of the invention, diluted in the culture medium so that the final concentration of DMA is 0.1% (v/v), are added to the plate cultures in order to obtain final concentration ranges from 1×10^−13 to 1×10^−5 M, and the cells are incubated for 72 hours.
The WST1 staining reagent, (Boehringer Mannheim, Germany) is then added to each well at a final concentration of 9%, and the cells are incubated for 2 hours at 37° C. This stage allows the mitochondrial deshydrogenase of the living cells to convert WST1 orange tetrazolium salt into crimson formazan. The resulting stained solutions are quantified by dual-beam detection ([…]) using a multi-cuvette scanning spectrophotometer.
The results shown in the following table III C) are expressed in terms of inhibitory concentration at 50% (IC50, in nM), accompanied by a confidence interval.

One may read the IC50 as the concentration at which inhibition is half-maximal. A low value points to greater potency.

Molecule `CCc1c2c(nc3cc(F)cc(F)c13)-c1cc3c(c(=O)n1C2)COC(=O)C[C@]3(O)CC` [Example 102, (5R)-5,12-diethyl-9,1 1-difluoro-5-hydroxy-4,5,13,15-tetrahydro-1H,3H-oxepino[3′,4′:6,7]indolizino[1,2-b]quinoline-3,15-dione] returned an IC50 (Homo sapiens, HT-29, 72 hours) of 8 nM.
Turning to `CC[C@@]1(O)CC(=O)OCc2c1cc1n(c2=O)Cc2c-1nc1cc(F)ccc1c2CC(C)(C)C` [Example 163, (5R)-5-ethyl-9-fluoro-5-hydroxy-12-neopentyl-4,5,13,15-tetrahydro-1H,3H-oxepino[3′,4′:6,7]indolizino[1,2-b]quinoleine-3,15-dione], the IC50 (72 hours) was found to be 6 nM.
Molecule `CC[C@@]1(O)CC(=O)OCc2c1cc1n(c2=O)Cc2c-1nc1cc(F)ccc1c2-c1ccc(F)cc1` [Example 115, (5R)-5-ethyl-9-fluoro-12-(4-fluorophenyl)-5-hydroxy-4,5,13,15-tetrahydro-1H,3H-oxepino[3′,4′:6,7]indolizino[1,2-b]quinoline-3,15-dione] gave an IC50 (Homo sapiens, HT-29, 72 hours) of 0.26 nM.
For the setting “Homo sapiens, HT-29, 72 hours”, `CC[C@@]1(O)CC(=O)OCc2c1cc1n(c2=O)Cc2c-1nc1ccccc1c2CC[Si](C)(C)C` [Example 104, (5R)-5-ethyl-5-hydroxy-12-(2-trimethylsilylethyl)-4,5,13,15-tetrahydro-1H,3H-oxepino[3′,4′:6,7]indolizino[1,2-b]quinoline-3,15-dione] came in with a 50% inhibitory concentration (IC50) of 8.6 nM.
The molecule `CC[C@@]1(O)CC(=O)OCc2c1cc1n(c2=O)Cc2c-1nc1cc(F)ccc1c2-c1ccc(N(C)C)cc1` [Example 167, (5R)-12-(4-dimethylaminophenyl)-5-ethyl-9-fluoro-5-hydroxy-4,5,13,15-tetrahydro-1H,3H-oxepino[3′,4′:6,7]indolizino [1,2-b]quinoleine-3,15-dione] yielded an IC50 (72 hours) of 13 nM.
In the case of `CC[C@@]1(O)CC(=O)OCc2c1cc1n(c2=O)Cc2c-1nc1ccccc1c2-c1ccccc1` [Example 89, (5R)-5-ethyl-5-hydroxy-12-phenyl-4,5,13,15-tetrahydro-1H,3H-oxepino[3′,4′:6,7]indolizino[1,2-b]quinoline-3,15-dione], the IC50 (Homo sapiens, HT-29, 72 hours) was determined as 13 nM.
For `CCCCc1c2c(nc3cc(F)ccc13)-c1cc3c(c(=O)n1C2)COC(=O)C[C@]3(O)CC` [Example 105, (5R)-12-butyl-5-ethyl-9-fluoro-5-hydroxy-4,5,13,15-tetrahydro-1H,3H-oxepino[3′,4′:6,7]indolizino[1,2-b]quinoline-3,15-dione], where the note is “Homo sapiens, HT-29, 72 hours”, 9.5 nM corresponded to half-maximal inhibition (IC50).
Turning to `CC[C@@]1(O)CC(=O)OCc2c1cc1n(c2=O)Cc2cc3ccc(F)cc3nc2-1` [Example 84, (5R)-5-ethyl-9-fluoro-5-hydroxy-4,5,13,15-tetrahydro-1H,3H-oxepino[3′,4′:6,7]indolizino[1,2-b]quinoline-3,15-dione], for the setting “Homo sapiens, HT-29, 72 hours”, it took 2.5 nM to reach half-maximal inhibition (IC50).
Regarding `CC[C@@]1(O)CC(=O)OCc2c1cc1n(c2=O)Cc2c-1nc1ccccc1c2Cl` [Example 160, (5R)-12-chloro-5-ethyl-5-hydroxy-4,5,13,15-tetrahydro-1H,3H-oxepino[3′,4′:6,7]indolizino[1,2-b]quinoleine-3,15-dione], inhibition (72 hours) was half-maximal at 5.5 nM (IC50).
With `CC[C@@]1(O)CC(=O)OCc2c1cc1n(c2=O)Cc2c-1nc1ccccc1c2-c1ccc(C)cc1` [Example 91, (5R)-5-ethyl-5-hydroxy-12-(4-methylphenyl)-4,5,13,15-tetrahydro-1H,3H-oxepino[3′,4′:6,7]indolizino[1,2-b]quinoline-3,15-dione], inhibition (Homo sapiens, HT-29, 72 hours) was half-maximal at 11 nM (IC50).
Where the note is “Homo sapiens, HT-29, 72 hours”, `CCc1c2c(nc3ccccc13)-c1cc3c(c(=O)n1C2)COC(=O)C[C@]3(O)CC` [Example 88, (5R)-5,12-diethyl-5-hydroxy-4,5,13,15-tetrahydro-1H,3H-oxepino[3′,4′:6,7]indolizino[1,2-b]quinoline-3,15-dione] showed an IC50 of 12 nM.
In turn, `CCc1c2c(nc3cc(F)ccc13)-c1cc3c(c(=O)n1C2)COC(=O)C[C@]3(O)CC` [Example 106, (5R)-5,12-diethyl-9-fluoro-5-hydroxy-4,5,13,15-tetrahydro-1H,3H-oxepino[3′,4′:6,7]indolizino[1,2-b]quinoline-3,15-dione] displayed a half-inhibitory concentration (IC50) (Homo sapiens, HT-29, 72 hours) of 3.5 nM.
`CC[C@@]1(O)CC(=O)OCc2c1cc1n(c2=O)Cc2c-1nc1cc(F)ccc1c2-c1cccc(F)c1` [Example 164, (5R)-5-ethyl-9-fluoro-12-(3-fluorophenyl)-5-hydroxy-4,5,13,15-tetrahydro-1H,3H-oxepino[3′,4′:6,7]indolizino[1,2-b]quinoleine-3,15-dione]: the IC50 (72 hours) was 2.7 nM.
In turn, `CC[C@@]1(O)CC(=O)OCc2c1cc1n(c2=O)Cc2c-1nc1cc(F)ccc1c2-c1cc(F)cc(F)c1` [Example 117, (5R)-12-(3,5-difluorophenyl)-5-ethyl-9-fluoro-5-hydroxy-4,5,13,15-tetrahydro-1H,3H-oxepino[3′,4′:6,7]indolizino[1,2-b]quinoline-3,15-dione] registered an IC50 (Homo sapiens, HT-29, 72 hours) of 0.25 nM.
As for `CCCCc1c2c(nc3cc(F)c(F)cc13)-c1cc3c(c(=O)n1C2)COC(=O)C[C@]3(O)CC` [Example 95, (5R)-12-butyl-5-ethyl-9,10-difluoro-5-hydroxy-4,5,13,15-tetrahydro-1H,3H-oxepino[3′,4′:6,7]indolizino[1,2-b]quinoline-3,15-dione], inhibition (Homo sapiens, HT-29, 72 hours) was half-maximal at 8.5 nM (IC50).
In the case of `CC[C@@]1(O)CC(=O)OCc2c1cc1n(c2=O)Cc2c-1nc1cc(F)ccc1c2-c1ccc(C(F)(F)F)cc1` [Example 165, (5R)-5-ethyl-9-fluoro-5-hydroxy-12-(4-trifluoromethylphenyl)-4,5,13,15-tetrahydro-1H,3H-oxepino[3′,4′:6,7]indolizino[1,2-b]quinoleine-3,15-dione], half-maximal inhibition (72 hours) (IC50) required 1.7 nM.
The same measure, in the same setting: then `CC[C@@]1(O)CC(=O)OCc2c1cc1n(c2=O)Cc2cc3c(F)c(F)c(F)cc3nc2-1` [Example 171, (5R)-5-ethyl-9,10,11-trifluoro-5-hydroxy-4,5,13,15-tetrahydro-1H,3H-oxepino[3′,4′:6,7]indolizino[1,2-b]quinoleine-3,15-dione], with 8.2 nM.
